In patent US12629358B2, “Compound used as RET kinase inhibitor and application thereof” (TYK MEDICINES, INC., priority 2019, dated 2026):
Positions count from the first letter of the chain named. Like-named read-outs stand apart in the source and are kept apart here.

Columns and labels:
[1] = Metabolism test of drugs: plasma pharmacokinetics after intravenous and intragastric administration; assay type: in vivo; settings: SD rats; for CL_obs / AUC(0-inf) / AUC(0-t) / half-life / MRT / Vd / Cmax / Tmax: plasma; for F: PO 10 mg/kg vs IV 2 mg/kg; for AUC(0-inf) / AUC(0-t) / half-life / MRT / Vd / Cmax / Tmax: male, rat; for MRT: read-out: MRTINF_ obs; for Vd: read-out: Vss
Procedure: Four small molecule compounds of BLU-667, compound C2, compound C4 and compound C8 were administered to SD rats by intravenous and intragastric administration respectively. Blood samples were collected at different time points to determine the concentration of drugs in plasma after administration and calculate the related pharmacokinetics parameters.
The vehicle of BLU-667, C2, C4 and C8 was 10% NMP+49% PEG400+1% Tween80+40% Water. The specific preparation method was as follows: proper amount of tested samples was weighed, dissolved in 10% NMP+49% PEG400+1% Tween80+40% Water, mixed well by vortex for later use.
LC-MS/MS was used by the analysis department of the experimental organization to detect and analyze the prepared solution of sample for test.
Healthy male SD rats were used in this research. Animal weight: 150-200 g. All animals fasted before administration, and resumed feeding 4 hours after administration.
Time points for blood collection were: • Intravenous administration (groups 1, 3 and 5): 0.0833, 0.25, 0.5, 1, 2, 4, 8, 12 and 24 hours after administration. (±2 min at time point ≤2 hr, ±15 min at other points.) • Oral administration: (groups 2, 4, 6 and 7): 0.25, 0.5, 1, 2, 4, 8, 12 and 24 hours after administration. (±2 m at time point […] at other points.)
About 0.1 mL of blood was collected from each animal through jugular vein every time, and EDTA or heparin sodium was used as anticoagulant. Blood samples were collected and placed on ice, and plasma was separated by centrifugation (centrifugation conditions: 5000 r/min, 6 min, 4° C.).
LC-MS/MS was used by the analysis department of the experimental organization to analyze the plasma samples of rats.
According to the data of blood drug concentration of the drug, the pharmacokinetic parameters AUC0→t, AUC0→∞, MRT0→∞, CMax, TMax, Vss, F, CL and T1/2 as well as their mean and standard deviation of the samples for test were calculated respectively by pharmacokinetic calculation software WinNonlin non-compartment model.
The main pharmacokinetic parameters of BLU-667, compound C2, compound C4 and compound C8 in plasma after intravenous and single oral administration of BLU-667, compound C2, compound C4 and compound C8 in SD rats were shown in Table 3

[2] = tested on: tumor patients with RET fusion and mutation; settings: Phase I, cited from earlier work
[3] = target: T1, Ba/F3-KIF5B-RET-V804L cells (Homo sapiens, UniProt P07949, V804L); assay: Cell anti-proliferation experiment (CellTiter-Glo), Ba/F3-KIF5B-RET-V804L; assay type: cell-based; settings: cell viability, 72 h
T1 construct: host or cells: Ba/F3 (BaF3 from RIKEN BRC CELL BANK); the other entry of the earlier key: KIF5B (P33176, Kinesin-1 heavy chain)
T1 sequence (P07949 713-1063 V804L limits assumed): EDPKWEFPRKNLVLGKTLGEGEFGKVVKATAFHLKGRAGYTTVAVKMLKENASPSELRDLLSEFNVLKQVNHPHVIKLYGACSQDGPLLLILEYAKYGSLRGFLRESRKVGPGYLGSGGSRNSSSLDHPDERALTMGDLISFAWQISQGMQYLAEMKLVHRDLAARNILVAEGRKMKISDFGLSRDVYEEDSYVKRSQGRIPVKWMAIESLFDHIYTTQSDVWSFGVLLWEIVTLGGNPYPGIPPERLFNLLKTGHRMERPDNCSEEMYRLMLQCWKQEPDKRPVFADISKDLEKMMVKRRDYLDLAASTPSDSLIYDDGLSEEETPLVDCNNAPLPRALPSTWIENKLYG
Procedure: (§1) Ba/F3-KIF5B-RET, Ba/F3-KIF5B-RET-V804L and Ba/F3-KIF5B-RET-V804M cells were constructed by PreceDo Pharmaceuticals Co., Ltd.
(§2) Ba/F3-KIF5B-RET, Ba/F3-KIF5B-RET-V804L and Ba/F3-KIF5B-RET-V804M medium: RPMI-1640+10% FBS+1% P/S.
(§3) A 1000× solution of the compound was prepared with DMSO, the compound was diluted to 20 times final concentration with a growth medium, and […] was added.
(§4) The suspended cells were rotated downward, resuscitated in the growth medium, and then counted with a cell counter. The cell suspension was diluted to the desired concentration in the growth medium. 95p L cell suspension was fed to a 96-well plate. 5 μL of 20× compound was added to the […], and the final DMSO concentration per well was 0.1%; incubated at 37° C. with 5% CO2 for 72 h
(§5) The plate was equilibrated to room temperature before measurement, 50 μl of CellTiter-Glo® reagent was added into each well, mixed on a shaker for 2 minutes, incubated at room temperature for 10 minutes, and recorded with Paradigm.
(§6) Cell viability was analyzed using Graphpad 7.0 software according to the formula Cell viability (CV %)=(RLU compound−RLU blank)/(RLU control−RLU blank)*100%, and the corresponding IC50 data were calculated as shown in Table 2

[4] = target: T2, Ba/F3-KIF5B-RET-V804M cells (Homo sapiens, UniProt P07949, V804M); assay: Cell anti-proliferation experiment (CellTiter-Glo), Ba/F3-KIF5B-RET-V804M; assay type: cell-based; settings: cell viability, 72 h
T2 construct: host or cells: Ba/F3 (BaF3 from RIKEN BRC CELL BANK); the other entry of the earlier key: KIF5B (P33176, Kinesin-1 heavy chain)
T2 sequence (P07949 713-1063 V804M limits assumed): T1 sequence (P07949 713-1063 V804L limits assumed) with L92M
Procedure: as §1, §2, §3, §4, §5, §6

Ba/F3-KIF5B-RET cells = target: T3, Ba/F3-KIF5B-RET cells (Homo sapiens, UniProt P07949); assay: Cell anti-proliferation experiment (CellTiter-Glo), Ba/F3-KIF5B-RET; assay type: cell-based; settings: cell viability, 72 h
T3 construct: host or cells: Ba/F3 (BaF3 from RIKEN BRC CELL BANK); the other entry of the earlier key: KIF5B (P33176, Kinesin-1 heavy chain)
T3 sequence (P07949 713-1063 limits assumed): T1 sequence (P07949 713-1063 V804L limits assumed) with L92V
Procedure: as §1, §2, §3, §4, §5, §6

wild-type RET kinase = wild-type RET kinase (Homo sapiens, UniProt P07949); assay: Enzyme activity test against wild-type RET kinase (33P-ATP filter-binding kinase activity assay); assay type: biochemical; settings: ATP Km concentration, 10 concentrations
Procedure: A biological activity test experiment was conducted below for some compounds of the above Examples and Comparative Example.
[…]. The biological activity screening of the compounds will be determined repeatedly at 10 concentrations.
Each sample was prepared into a solution with a concentration of 10 mM.
The test compound was dissolved in 100% dimethyl sulfoxide to a specific concentration. Integra Viaflo Assist was used to assist DMSO for (continuous) dilution.
Kinase was added to the newly prepared basic reaction buffer
Adding any desired cofactors to the substrate solution.
Adding wild-type RET kinase into the substrate solution and gently mixing;
Acoustic technology (Echo 550; Nanoliter range) was used to feed the compounds in 100% of dimethyl sulfoxide into the kinase reaction mixture and incubated at room temperature for 20 minutes.
33P-ATP (specific activity 10 Ci/l) was added to the reaction mixture to start the reaction.
Incubated at room temperature for 2 hours
Radioactivity was detected by filter-binding method.
Kinase activity data was expressed as the percentage of remaining kinase activity in the test sample compared to the vehicle (dimethyl sulfoxide) reaction. Prism (GRAPHPAD software) was used to obtain IC50 value and curve-fitting.

[5] = PO, versus control compound (BLU-667)

Chain of wild-type RET kinase (P07949 29-1114): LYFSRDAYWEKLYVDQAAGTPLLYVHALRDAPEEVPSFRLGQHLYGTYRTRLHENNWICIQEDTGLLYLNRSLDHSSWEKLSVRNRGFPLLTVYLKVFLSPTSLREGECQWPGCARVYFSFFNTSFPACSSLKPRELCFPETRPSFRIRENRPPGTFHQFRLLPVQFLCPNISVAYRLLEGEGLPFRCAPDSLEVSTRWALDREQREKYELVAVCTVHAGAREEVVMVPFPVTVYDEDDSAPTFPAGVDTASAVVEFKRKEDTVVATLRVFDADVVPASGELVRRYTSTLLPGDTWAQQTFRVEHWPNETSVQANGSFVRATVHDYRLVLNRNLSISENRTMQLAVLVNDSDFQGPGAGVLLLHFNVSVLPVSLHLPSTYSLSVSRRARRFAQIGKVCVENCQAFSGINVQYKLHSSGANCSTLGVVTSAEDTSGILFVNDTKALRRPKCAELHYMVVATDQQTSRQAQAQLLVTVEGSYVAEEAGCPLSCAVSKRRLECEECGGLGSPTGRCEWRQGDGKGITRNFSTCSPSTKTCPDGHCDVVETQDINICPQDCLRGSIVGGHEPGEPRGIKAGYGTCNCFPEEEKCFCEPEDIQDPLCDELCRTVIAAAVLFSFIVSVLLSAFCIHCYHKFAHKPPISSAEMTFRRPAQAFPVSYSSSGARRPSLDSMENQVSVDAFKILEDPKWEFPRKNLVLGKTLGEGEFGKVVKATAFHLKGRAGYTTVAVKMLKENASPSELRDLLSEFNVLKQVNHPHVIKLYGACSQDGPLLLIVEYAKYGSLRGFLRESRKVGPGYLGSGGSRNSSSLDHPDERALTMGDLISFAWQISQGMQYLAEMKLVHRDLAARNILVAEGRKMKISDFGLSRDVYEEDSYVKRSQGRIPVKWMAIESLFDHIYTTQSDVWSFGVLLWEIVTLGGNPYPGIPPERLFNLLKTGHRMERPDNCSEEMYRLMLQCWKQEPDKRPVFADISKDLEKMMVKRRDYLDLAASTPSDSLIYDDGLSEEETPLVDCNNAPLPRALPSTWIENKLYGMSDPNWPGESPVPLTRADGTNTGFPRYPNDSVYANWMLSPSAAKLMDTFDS

| SMILES | CL_obs ([1]; IV, 2 mg/kg) [mL/min/kg] | F [1] [%] | AUC(0-inf) ([1]; IV, 2 mg/kg) [ng·h/mL] | AUC(0-t) ([1]; IV, 2 mg/kg) [ng·h/mL] | half-life ([1]; IV, 2 mg/kg) [h] | MRT ([1]; IV, 2 mg/kg) [h] | Vd ([1]; IV, 2 mg/kg) [L/kg] | AUC(0-inf) ([1]; PO, 10 mg/kg) [ng·h/mL] | AUC(0-t) ([1]; PO, 10 mg/kg) [ng·h/mL] | Cmax ([1]; PO, 10 mg/kg) [ng/mL] | Tmax ([1]; PO, 10 mg/kg) [h] | half-life ([1]; PO, 10 mg/kg) [h] | MRT ([1]; PO, 10 mg/kg) [h] | IC50 [3] [nM] | IC50 [4] [nM] | IC50 (Ba/F3-KIF5B-RET cells) [nM] | IC50 (wild-type RET kinase) [nM] | further results |
| --- | --- | --- | --- | --- | --- | --- | --- | --- | --- | --- | --- | --- | --- | --- | --- | --- | --- | --- |
| CO[C@]1(C(=O)N[C@@H](C)c2ccc(-n3cc(F)cn3)nc2)CC[C@H](c2nc(C)cc(Nc3cc(C)[nH]n3)n2)CC1 [BLU-667, reference compound] | 24.5 | 61.14 | 1410 | 1330 | 5.52 | 6.1 | 8.53 | 4110 | 4080 | 632 | 4 | 3.36 | 5.08 |  |  |  |  | ORR ([2]; patients with medullary thyroid carcinoma): 40%; ORR ([2]; patients with non-small cell lung cancer): 50%; overall remission rate (ORR) ([2]; tumor patients with RET fusion and mutation): 45% |
| CO[C@]1(C(=O)N[C@@H](C)c2ccc(-n3cc(F)cn3)nc2)CC[C@H](c2nc(Nc3cc(C)[nH]n3)ccc2C#N)CC1 [Compound C2] | 8.67 | 11.96 | 3900 | 3850 | 4.12 | 4.89 | 2.56 | 2320 | 2300 | 325 | 2 | 3.26 | 6.05 | 16.9 | 42.4 | 23.1 | 1.98 |  |
| CO[C@]1(C(=O)N[C@@H](C)c2ccc(-n3cc(F)cn3)nc2)CC[C@H](c2nc(Nc3cc(C)[nH]n3)cc3cccnc32)CC1 [Compound C4] | 7.67 | 49.85 | 4430 | 4390 | 4.19 | 3.74 | 1.7 | 11000 | 10900 | 2460 | 2 | 3.18 | 4.3 | 7.1 | 17.3 | 9.1 | 1.02 | maximum blood drug concentration (Cmax) increased compared with the control compound [1, 5]: 3-4 times; plasma exposure amount AUC increased compared with the control compound [1, 5]: 2-3 times |
